According to patent US9890147B2 (BAYER PHARMA AKTIENGESELLSCHAFT, priority 2012, dated 2018):

How the values were obtained:
BRD4 (BD1) = target: T1, BRD4 (BD1) (Homo sapiens, UniProt O60885); test: Binding assay BRD4/acetylated peptide H4 (TR-FRET protein-protein interaction assay)
T1 construct: with relatively long constructs also being possible, preferably amino acids 44-168; made in house; host or cells: E. coli
Outline: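 His6-BRD4 BD1 (aa 67-152, E. coli), usually 10 nM, with biotinylated tetra-acetylated H4 peptide in HEPES pH 7.5 buffer; 11 compound concentrations 0.1 nM–20 μM in duplicate, 10 min preincubation, 1 h at 22 °C then ≥3 h at 4 °C. TR-FRET 665/620 ratio; IC50 by 4-parameter fit.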

MOLM-13 cells = test: Cell proliferation assay (alamarBlue), MOLM-13; type: cell-based; conditions: Homo sapiens, 96 hours incubation, inhibition of cell proliferation
Outline: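 Cells in RPMI1640/10% FCS read by alamarBlue fluorescence (ex 530, em 590 nm) after overnight 37 °C incubation, then treated at 1E-5 to 1E-8 M for 96 h. Pre-treatment values subtracted from endpoint values and compared with buffer-only wells; IC50 is 50% proliferation inhibition.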

SMILES	IC50 (BRD4 (BD1))	IC50 (MOLM-13 cells)
CNC(=O)N1N=C(c2ccc(-c3cccc(S(=O)(=O)NC)c3)cc2)c2cc(OC)c(OC)cc2CC1C (racemic) [Example 121, (±)-7,8-dimethoxy-N,4-dimethyl-1-[3′-(methylsulphamoyl)biphenyl-4-yl]-4,5-dihydro-3H-2,3-benzodiazepine-3-carboxamide]	40 nM	270 nM
CNC(=O)N1N=C(c2ccc(-c3cnccc3F)cc2)c2cc(OC)c(OC)cc2CC1C (racemic) [Example 123, (±)-1-[4-(4-fluoropyridin-3-yl)phenyl]-7,8-dimethoxy-N,4-dimethyl-4,5-dihydro-3H-2,3-benzodiazepine-3-carboxamide]	50 nM	630 nM
CNC(=O)N1N=C(c2ccc(-c3cccnc3C)cc2)c2cc(OC)c(OC)cc2CC1C (racemic) [Example 124, (±)-7,8-dimethoxy-N,4-dimethyl-1-[4-(2-methylpyridin-3-yl)phenyl]-4,5-dihydro-3H-2,3-benzodiazepine-3-carboxamide]	90 nM	1070 nM
CNC(=O)N1N=C(c2ccc(N3CCC(O)CC3)cc2)c2cc(OC)c(OC)cc2CC1C (racemic) [Example 130, (±)-1-[4-(4-hydroxypiperidin-1-yl)phenyl]-7,8-dimethoxy-N,4-dimethyl-4,5-dihydro-3H-2,3-benzodiazepine-3-carboxamide]	30 nM	170 nM
CNC(=O)N1N=C(c2ccc(N3CCN(C(=O)C(C)(C)O)CC3)cc2)c2cc(OC)c(OC)cc2CC1C (racemic) [Example 134, (±)-1-{4-[4-(2-hydroxy-2-methylpropanoyl)-piperazin-1-yl]phenyl}-7,8-dimethoxy-N,4-dimethyl-4,5-dihydro-3H-2,3-benzodiazepine-3-carboxamide]	50 nM	360 nM
CNC(=O)N1N=C(c2ccc(N3CCNC(=O)C3)cc2)c2cc(OC)c(OC)cc2CC1C (racemic) [Example 137, (±)-7,8-dimethoxy-N,4-dimethyl-1-[4-(3-oxopiperazin-1-yl)phenyl]-4,5-dihydro-3H-2,3-benzodiazepine-3-carboxamide]	60 nM	490 nM
CNC(=O)N1N=C(c2cccc(N3CCOCC3)c2)c2cc(OC)c(OC)cc2CC1C (racemic) [Example 140, (±)-7,8-dimethoxy-N,4-dimethyl-1-[3-(morpholin-4-yl)phenyl]-4,5-dihydro-3H-2,3-benzodiazepine-3-carboxamide]	60 nM	470 nM
CNC(=O)N1N=C(c2cccc(N3CCC3)c2)c2cc(OC)c(OC)cc2CC1C (racemic) [Example 142, (±)-1-[3-(azetidin-1-yl)phenyl]-7,8-dimethoxy-N,4-dimethyl-4,5-dihydro-3H-2,3-benzodiazepine-3-carboxamide]	100 nM	680 nM
CNC(=O)N1N=C(c2ccc(F)c(N3CCOCC3)c2)c2cc(OC)c(OC)cc2CC1C (racemic) [Example 144, (±)-1-[4-fluoro-3-(morpholin-4-yl)phenyl]-7,8-dimethoxy-N,4-dimethyl-4,5-dihydro-3H-2,3-benzodiazepine-3-carboxamide]	190 nM	960 nM
CNC(=O)N1N=C(c2ccc(F)c(N3CCC(O)CC3)c2)c2cc(OC)c(OC)cc2CC1C (racemic) [Example 146, (±)-1-[4-fluoro-3-(4-hydroxypiperidin-1-yl)phenyl]-7,8-dimethoxy-N,4-dimethyl-4,5-dihydro-3H-2,3-benzodiazepine-3-carboxamide]	470 nM	1150 nM
CNC(=O)N1N=C(c2ccc(-n3ccc(-c4ccc(F)cc4)n3)cc2)c2cc(OC)c(OC)cc2CC1C (racemic) [Example 150, (±)-1-{4-[3-(4-fluorophenyl)-1H-pyrazol-1-yl]phenyl}-7,8-dimethoxy-N,4-dimethyl-4,5-dihydro-3H-2,3-benzodiazepine-3-carboxamide]	80 nM	480 nM
CNC(=O)N1N=C(c2ccc(-n3cncn3)cc2)c2cc(OC)c(OC)cc2CC1C (racemic) [Example 152, (±)-7,8-Dimethoxy-N,4-dimethyl-1-[4-(1H-1,2,4-triazol-1-yl)phenyl]-4,5-dihydro-3H-2,3-benzodiazepine-3-carboxamide]	70 nM	430 nM
CNC(=O)N1N=C(c2ccc(-n3nc(C)nc3C)cc2)c2cc(OC)c(OC)cc2CC1C (racemic) [Example 154, (±)-1-[4-(3,5-dimethyl-1H-1,2,4-triazol-1-yl)phenyl]-7,8-dimethoxy-N,4-dimethyl-4,5-dihydro-3H-2,3-benzodiazepine-3-carboxamide]	170 nM	2080 nM
CNC(=O)N1N=C(c2ccc(-c3c(C)noc3C)cc2)c2cc(C(C)(C)C)ccc2CC1C (racemic) [Example 155, (±)-8-tert-Butyl-1-[4-(3,5-dimethylisoxazol-4-yl)phenyl]-N,4-dimethyl-4,5-dihydro-3H-2,3-benzodiazepine-3-carboxamide]	40 nM	380 nM
CNC(=O)N1N=C(c2ccc(-c3c(C)noc3C)cc2)c2cc(OC(F)F)c(OC(F)F)cc2CC1C (racemic) [Example 160, (±)-7,8-Bis(difluoromethoxy)-1-[4-(3,5-dimethylisoxazol-4-yl)phenyl]-N,4-dimethyl-4,5-dihydro-3H-2,3-benzodiazepine-3-carboxamide]	260 nM	400 nM

Continued by falling IC50 (BRD4 (BD1)), values first:

IC50 (BRD4 (BD1))	IC50 (MOLM-13 cells)	SMILES
1620 nM	3000 nM	CNC(=O)N1N=C(c2ccc(-n3nc(-c4ccccc4)cc3C(F)(F)F)cc2)c2cc(OC)c(OC)cc2CC1C (racemic) [Example 149, (±)-7,8-dimethoxy-N,4-dimethyl-1-{4-[3-phenyl-5-(trifluoromethyl)-1H-pyrazol-1-yl]phenyl}-4,5-dihydro-3H-2,3-benzodiazepine-3-carboxamide]
230 nM	790 nM	CNC(=O)N1N=C(c2ccc(-c3c(C)noc3C)cc2)c2cc(OC(F)(F)F)c(Cl)cc2CC1C (racemic) [Example 156, (±)-7-Chloro-1-[4-(3,5-dimethylisoxazol-4-yl)phenyl]-N,4-dimethyl-8-(trifluoromethoxy)-4,5-dihydro-3H-2,3-benzodiazepine-3-carboxamide]
170 nM	840 nM	CNC(=O)N1N=C(c2cccc(N3CCN(C)CC3)c2)c2cc(OC)c(OC)cc2CC1C (racemic) [Example 143, (±)-7,8-dimethoxy-N,4-dimethyl-1-[3-(4-methylpiperazin-1-yl)phenyl]-4,5-dihydro 3H-2,3-benzodiazepine-3-carboxamide]
110 nM	830 nM	CNC(=O)N1N=C(c2ccc(F)c(N3CC(F)(F)C3)c2)c2cc(OC)c(OC)cc2CC1C (racemic) [Example 145, (±)-1-[3-(3,3-difluoroazetidin-1-yl)-4-fluorophenyl]-7,8-dimethoxy-N,4-dimethyl-4,5-dihydro-3H-2,3-benzodiazepine-3-carboxamide]
110 nM	480 nM	CNC(=O)N1N=C(c2ccc(-n3ncnc3C)cc2)c2cc(OC)c(OC)cc2CC1C (racemic) [Example 153, (±)-7,8-dimethoxy-N,4-dimethyl-1-[4-(5-methyl-1H-1,2,4-triazol-1-yl)phenyl]-4,5-dihydro-3H-2,3-benzodiazepine-3-carboxamide]
90 nM	740 nM	CNC(=O)N1N=C(c2ccc(-c3cncc(C#N)c3)cc2)c2cc(OC)c(OC)cc2CC1C (racemic) [Example 126, (±)-1-[4-(5-cyanopyridin-3-yl)phenyl]-7,8-dimethoxy-N,4-dimethyl-4,5-dihydro-3H-2,3-benzodiazepine-3-carboxamide]
70 nM	1160 nM	CNC(=O)N1N=C(c2ccc(-c3ccnc(OC)c3)cc2)c2cc(OC)c(OC)cc2CC1C (racemic) [Example 125, (±)-7,8-dimethoxy-1-[4-(2-methoxypyridin-4-yl)phenyl]-N,4-dimethyl-4,5-dihydro-3H-2,3-benzodiazepine-3-carboxamide]
70 nM	550 nM	CNC(=O)N1N=C(c2cccc(N3CC(F)(F)C3)c2)c2cc(OC)c(OC)cc2CC1C (racemic) [Example 141, (±)-1-[3-(3,3-difluoroazetidin-1-yl)phenyl]-7,8-dimethoxy-N,4-dimethyl-4,5-dihydro-3H-2,3-benzodiazepine-3-carboxamide]
60 nM	660 nM	CNC(=O)N1N=C(c2ccc(-c3cncc(F)c3)cc2)c2cc(OC)c(OC)cc2CC1C (racemic) [Example 122, (±)-1-[4-(5-fluoropyridin-3-yl)phenyl]-7,8-dimethoxy-N,4-dimethyl-4,5-dihydro-3H-2,3-benzodiazepine-3-carboxamide]
60 nM	430 nM	CNC(=O)N1N=C(c2ccc(-c3c(C)noc3C)cc2)c2cc(C)ccc2CC1C (racemic) [Example 158, (±)-1-[4-(3,5-dimethylisoxazol-4-yl)phenyl]-N,4,8-trimethyl-4,5-dihydro-3H-2,3-benzodiazepine-3-carboxamide]
30 nM	280 nM	CNC(=O)N1N=C(c2ccc(N3CCN(C)C(=O)C3)cc2)c2cc(OC)c(OC)cc2CC1C (racemic) [Example 138, (±)-7,8-dimethoxy-N,4-dimethyl-1-[4-(4-methyl-3-oxopiperazin-1-yl)phenyl]-4,5-dihydro-3H-2,3-benzodiazepine-3-carboxamide]
20 nM	1310 nM	CNC(=O)N1N=C(c2ccc(-n3nc(C(F)(F)F)cc3C)cc2)c2cc(OC)c(OC)cc2CC1C (racemic) [Example 151, (±)-7,8-dimethoxy-N,4-dimethyl-1-{4-[5-methyl-3-(trifluoromethyl)-1H-pyrazol-1-yl]phenyl}-4,5-dihydro-3H-2,3-benzodiazepine-3-carboxamide]
